Reference: patent US6825326B2, “PSCA: prostate stem cell antigen and uses thereof” (The Regents of the University of California, priority 1997, dated 2004)

Assays:
[1] = LD50 experiment to determine the maximum tolerable dose; type: in vivo, mice
Protocol: An LD50 experiment was performed to determine the maximum tolerable dose of doxorubicin. Doxorubicin (Sigma) and was resuspended in sterile PBS. Doxorubicin was administered by intraperitoneal injection, at the following doses: 50 μg, 25 μg, 12.5 μg, and 6.75 μg. […] At the lower dose ranges, the mice survived for more than 4 weeks. The maximal tolerable dose was 25 μg.

PC3-PSCA tumors = test: Established subcutaneous PC3-PSCA tumors; conditions: day 43; 1G8 1 mg 3×/week 3 weeks; doxorubicin 25 μg once weekly 3 weeks
Protocol: PC3-PSCA cells were derived by retroviral gene transfer. […] Amphotropic retrovirus was generated by co-transfection of 293T cells with pSR-α containing PSCA and a retroviral helper plasmid containing the amphotropic envelope protein. PC3 cells were subsequently infected with the PSCA containing amphotropic retrovirus, and 48 hours after infection the cells were selected by growth in medium containing the neomycin analogue G418. After 2-3 weeks of selection and expansion, a Western blot was performed to confirm that the PC3-PSCA cells express PSCA protein.
PC3-PSCA cells were grown in T-150 flasks in DMEM+10% FBS prior to the injections. The cells were grown to log phase, harvested, washed, counted, then mixed with Matrigel at a 1:1 dilution, and kept on ice. For injection, male IcR-SCID mice were shaved on their flanks, and each mouse received a single subcutaneous injection of about 1×10^6 cells in a volume of 100 μl on the right flank. The growth of PC3-PSCA tumors was followed by caliper measurements of the growing tumors. The mice were selected for treatment when the tumor reached the size of 100-200 mm^3, at approximately 9 days after the subcutaneous injection. The tumor size was measured at days +9, +15, +23, +29, +36, and +43 post injection.
The mice treated with 1G8, were administered 1 mg of 1G8, three times per week for three consecutive weeks. […]

SMILES: COc1cccc2c1C(=O)c1c(O)c3c(c(O)c1C2=O)C[C@@](O)(C(=O)CO)C[C@@H]3O[C@H]1C[C@H](N)[C@H](O)[C@H](C)O1 [doxorubicin]
- survival at the lower dose ranges ([1]; 25 μg, 12.5 μg, 6.75 μg intraperitoneal): more than 4 weeks
- mortality at the highest dose ([1]; 50 μg intraperitoneal): all the mice died within 2 weeks
- maximal tolerable dose ([1]; intraperitoneal injection): 25 µg
- growth inhibition compared to PBS (PC3-PSCA tumors): 4%
